From ChEMBL document CHEMBL1201862, “PubChem BioAssay data set” (2004)
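48-hour exposure; five concentrations; linearly interpolated endpoints. Abbreviation: GI50, concentration required for 50% inhibition of growth.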 The source made the active and inactive calls. Rule as the data show it: active = GI50 up to about 1.1 µM and inactive = higher.

Experiments:
Assay in all cases: NCI-60 cell line screen, 48 h
[1] = tested on: KM-20L2
[2] = tested on: DMS-273
[3] = tested on: DLD-1
[4] = tested on: HOP-18
[5] = tested on: M19-MEL
[6] = tested on: SNB-78
[7] = tested on: XF498
[8] = tested on: RXF 631
[9] = tested on: DMS-114

Structure (SMILES) | GI50 [1] | GI50 [2] | GI50 [3] | GI50 [4] | GI50 [5] | GI50 [6] | GI50 [7] | GI50 [8] | GI50 [9]
COc1ccc(O)cc1C(O)c1ccccc1 (centres undefined) | > 100 µM (inactive) | > 100 µM (inactive) | > 100 µM (inactive) | > 100 µM (inactive) | > 100 µM (inactive) | > 100 µM (inactive) | > 100 µM (inactive) | – | –
COc1ccc(C2=Nc3ccccc3N=C(SC)C2)cc1 | 41.3 µM (inactive) | 73.6 µM (inactive) | 42.8 µM (inactive) | > 100 µM (inactive) | 39.8 µM (inactive) | > 100 µM (inactive) | 37.8 µM (inactive) | 47 µM (inactive) | 44.1 µM (inactive)
COCC(=O)OC1CCn2c1nc1c2C(=O)C(C)=C(NC(C)=O)C1=O (centres undefined) | 20.4 µM (inactive) | 17.5 µM (inactive) | 12.9 µM (inactive) | 27.9 µM (inactive) | 11.7 µM (inactive) | 1.81 µM (inactive) | 4.41 µM (inactive) | – | 1.82 µM (inactive)
O=C1Nc2ccccc2N/C1=C\C(=O)c1ccccc1O | > 100 µM (inactive) | > 100 µM (inactive) | > 100 µM (inactive) | > 100 µM (inactive) | > 100 µM (inactive) | > 100 µM (inactive) | – | – | > 100 µM (inactive)
O=C(C(=O)c1cc2ccccc2[nH]1)c1cc2ccccc2[nH]1 | > 347 µM (inactive) | > 318 µM (inactive) | > 316 µM (inactive) | – | > 195 µM (inactive) | > 347 µM (inactive) | > 176 µM (inactive) | > 347 µM (inactive) | > 220 µM (inactive)
C[C@]12CCC(=O)C(O)=C1CC[C@@H]1C2CC[C@]2(C)Nc3c(cnn3-c3ccccc3)CC12 (some centres undefined) | 56.5 µM (inactive) | 56.4 µM (inactive) | > 100 µM (inactive) | – | > 100 µM (inactive) | > 100 µM (inactive) | > 100 µM (inactive) | 29.9 µM (inactive) | –
c1ccc2c(c1)CCCc1cc3ccccc3nc1-2 | > 100 µM (inactive) | – | > 100 µM (inactive) | > 100 µM (inactive) | > 100 µM (inactive) | 85.7 µM (inactive) | 53.3 µM (inactive) | – | 26.9 µM (inactive)
Cc1c(Cl)cccc1NC(=O)C(=O)C1C(=O)CC(C)(C)CC1=O | > 100 µM (inactive) | > 100 µM (inactive) | > 100 µM (inactive) | > 100 µM (inactive) | > 100 µM (inactive) | > 100 µM (inactive) | – | > 100 µM (inactive) | > 100 µM (inactive)
CC(C)=CC1C[C@H](C2CC=C3C2(C)CCC2[C@@]3(C)C(=O)CC3[C@]2(C)C=CC(=O)[C@]3(C)CO)CO1 (some centres undefined) | 5.42 µM (inactive) | 5.66 µM (inactive) | – | 11 µM (inactive) | 3.85 µM (inactive) | 13.6 µM (inactive) | 4.93 µM (inactive) | – | 4.23 µM (inactive)
O=CC1CCC=CC1NC(=O)OCc1ccccc1 (centres undefined) | – | 27.9 µM (inactive) | 27.2 µM (inactive) | > 100 µM (inactive) | 41.8 µM (inactive) | 50 µM (inactive) | 44.2 µM (inactive) | – | 22.7 µM (inactive)
CC(=O)Nc1ccc(S(=O)(=O)N/N=C/CN2C(=O)c3ccccc3C2=O)cc1 | > 100 µM (inactive) | > 100 µM (inactive) | > 100 µM (inactive) | – | > 100 µM (inactive) | – | > 100 µM (inactive) | – | > 100 µM (inactive)
NC(CCCNCc1ccccc1O)C(=O)O (centres undefined) | > 100 µM (inactive) | > 100 µM (inactive) | > 100 µM (inactive) | > 100 µM (inactive) | > 100 µM (inactive) | > 100 µM (inactive) | – | – | > 100 µM (inactive)
O=C(NCCO)c1ccc([N+](=O)[O-])cc1 | > 100 µM (inactive) | > 100 µM (inactive) | > 100 µM (inactive) | – | > 100 µM (inactive) | > 100 µM (inactive) | > 100 µM (inactive) | > 100 µM (inactive) | > 100 µM (inactive)
C=CC(=O)Nc1ccccc1CC(c1c[nH]c2ccccc12)c1c[nH]c2ccccc12 | – | 17.7 µM (inactive) | – | – | 15.6 µM (inactive) | 16.3 µM (inactive) | 21.1 µM (inactive) | 16.7 µM (inactive) | 15.5 µM (inactive)
CCN(CC)CCN1CCc2c([nH]c3ccccc23)C1c1cccnc1 (centres undefined) | > 100 µM (inactive) | > 100 µM (inactive) | > 100 µM (inactive) | > 100 µM (inactive) | > 100 µM (inactive) | > 100 µM (inactive) | > 100 µM (inactive) | – | > 100 µM (inactive)
O=c1c2cccc3cccc(c4oc5c6cccc7cccc(c(=O)c5c14)c76)c32 | 15.4 µM (inactive) | 12.8 µM (inactive) | 15.1 µM (inactive) | 14.6 µM (inactive) | 12 µM (inactive) | 13.7 µM (inactive) | – | 11.4 µM (inactive) | 12.5 µM (inactive)
COc1cc2c(cc1OC)CC(=O)Nc1cc(OC)c(OC)cc1CC2 | 48.4 µM (inactive) | 24.8 µM (inactive) | 40.3 µM (inactive) | > 100 µM (inactive) | 31.8 µM (inactive) | > 95.5 µM (inactive) | > 100 µM (inactive) | > 75.9 µM (inactive) | 24.3 µM (inactive)
O=C1NC2(CCCCCC2)C2CCCCCCC12O (centres undefined) | – | > 100 µM (inactive) | > 100 µM (inactive) | > 100 µM (inactive) | > 100 µM (inactive) | > 100 µM (inactive) | > 100 µM (inactive) | – | > 100 µM (inactive)
COc1ccc(CN[C@H]2CCc3cc(OC)c(OC)c(OC)c3-c3ccc(SC)c(=O)cc32)c(OC)c1OC | 0.0185 µM (active) | 0.0267 µM (active) | 0.0327 µM (active) | 58.3 µM (inactive) | 0.0338 µM (active) | 0.0394 µM (active) | 0.0308 µM (active) | – | 0.019 µM (active)
N#CC(/C(=N/NC(=N)N)C(=O)Nc1ccccc1[N+](=O)[O-])c1nc(-c2ccc([N+](=O)[O-])cc2)cs1 (centres undefined) | > 100 µM (inactive) | > 100 µM (inactive) | > 100 µM (inactive) | – | > 100 µM (inactive) | > 100 µM (inactive) | > 100 µM (inactive) | – | > 100 µM (inactive)
C/C(CC(=O)Nc1ccc([N+](=O)[O-])cc1)=N\Nc1ccc([N+](=O)[O-])cc1[N+](=O)[O-] | 32.8 µM (inactive) | 18.5 µM (inactive) | 39.4 µM (inactive) | – | > 100 µM (inactive) | > 100 µM (inactive) | 86.7 µM (inactive) | > 100 µM (inactive) | 48.5 µM (inactive)
CC(=O)SC(SC(C)=O)SC(C)=O | > 100 µM (inactive) | > 100 µM (inactive) | > 100 µM (inactive) | > 100 µM (inactive) | > 100 µM (inactive) | > 100 µM (inactive) | – | > 100 µM (inactive) | 31.1 µM (inactive)
Cc1ccc(-c2cc(=O)c3cc(C)c(C)c(C(=O)O)c3o2)cc1N | > 100 µM (inactive) | – | > 100 µM (inactive) | > 100 µM (inactive) | > 100 µM (inactive) | > 100 µM (inactive) | > 100 µM (inactive) | > 100 µM (inactive) | > 100 µM (inactive)
Cc1cc2c(=O)c3ccccc3[nH]c2c(C(=O)O)c1C | > 100 µM (inactive) | > 100 µM (inactive) | > 100 µM (inactive) | – | > 100 µM (inactive) | 36.6 µM (inactive) | > 100 µM (inactive) | – | > 100 µM (inactive)
CCC(=C(c1ccc(OCc2ccccc2)cc1)c1ccc(OCc2ccccc2)cc1)c1ccc(OC)cc1 | > 100 µM (inactive) | > 100 µM (inactive) | > 100 µM (inactive) | – | > 100 µM (inactive) | > 100 µM (inactive) | > 100 µM (inactive) | – | > 100 µM (inactive)
C=CCC1=C(C)C[C@@H]2CCC(=O)C=C12 | – | > 100 µM (inactive) | – | – | > 100 µM (inactive) | > 100 µM (inactive) | – | > 100 µM (inactive) | > 100 µM (inactive)
CCOC(=O)C(C(=O)OCC)=C1C=C(c2ccccc2)c2ccccc21 | 31.6 µM (inactive) | 51.5 µM (inactive) | 10.7 µM (inactive) | – | 52.5 µM (inactive) | > 100 µM (inactive) | 70.5 µM (inactive) | – | 54.6 µM (inactive)
CC12OC3(O)C4C5CC(C6C5C3C61)C42 (centres undefined) | > 100 µM (inactive) | > 100 µM (inactive) | > 100 µM (inactive) | > 100 µM (inactive) | > 100 µM (inactive) | > 100 µM (inactive) | – | > 100 µM (inactive) | > 100 µM (inactive)
Brc1cccc(/C=N/C23CC4CC(CC(C4)C2)C3)c1 | > 100 µM (inactive) | > 100 µM (inactive) | > 100 µM (inactive) | > 100 µM (inactive) | > 100 µM (inactive) | > 100 µM (inactive) | > 100 µM (inactive) | – | > 100 µM (inactive)
CCCCCCCCC(O)C#CC(N)=O (centres undefined) | 15.6 µM (inactive) | 7.28 µM (inactive) | 10.2 µM (inactive) | 12.6 µM (inactive) | 11.8 µM (inactive) | 15.6 µM (inactive) | 17.1 µM (inactive) | 11.7 µM (inactive) | 3.34 µM (inactive)
